Measured values from patent publication US20250320189A1, “NEW DERIVATIVES FOR TREATING TRPM3 MEDIATED DISORDERS” (Katholieke Universiteit Leuven, priority 2022, published 2025).

The compounds below were run against T1, mouse TRPM3α2 (mTRPM3) ion channel (Mus musculus, UniProt J9SQF3) (assay: Monitoring the TRPM3 ion channel driven Ca2+ uptake (Fluo-4 AM assay)). Conditions: mTRPM3alpha2 overexpressing flip-in HEK293 cells, stimulated with Pregnenolone sulfate (PS) 50 μM.
T1 construct: expressed in transfected cells; host or cells: flip-in (Flp-In) HEK293
T1 sequence (J9SQF3 1-1709 isoform J9SQF3-12): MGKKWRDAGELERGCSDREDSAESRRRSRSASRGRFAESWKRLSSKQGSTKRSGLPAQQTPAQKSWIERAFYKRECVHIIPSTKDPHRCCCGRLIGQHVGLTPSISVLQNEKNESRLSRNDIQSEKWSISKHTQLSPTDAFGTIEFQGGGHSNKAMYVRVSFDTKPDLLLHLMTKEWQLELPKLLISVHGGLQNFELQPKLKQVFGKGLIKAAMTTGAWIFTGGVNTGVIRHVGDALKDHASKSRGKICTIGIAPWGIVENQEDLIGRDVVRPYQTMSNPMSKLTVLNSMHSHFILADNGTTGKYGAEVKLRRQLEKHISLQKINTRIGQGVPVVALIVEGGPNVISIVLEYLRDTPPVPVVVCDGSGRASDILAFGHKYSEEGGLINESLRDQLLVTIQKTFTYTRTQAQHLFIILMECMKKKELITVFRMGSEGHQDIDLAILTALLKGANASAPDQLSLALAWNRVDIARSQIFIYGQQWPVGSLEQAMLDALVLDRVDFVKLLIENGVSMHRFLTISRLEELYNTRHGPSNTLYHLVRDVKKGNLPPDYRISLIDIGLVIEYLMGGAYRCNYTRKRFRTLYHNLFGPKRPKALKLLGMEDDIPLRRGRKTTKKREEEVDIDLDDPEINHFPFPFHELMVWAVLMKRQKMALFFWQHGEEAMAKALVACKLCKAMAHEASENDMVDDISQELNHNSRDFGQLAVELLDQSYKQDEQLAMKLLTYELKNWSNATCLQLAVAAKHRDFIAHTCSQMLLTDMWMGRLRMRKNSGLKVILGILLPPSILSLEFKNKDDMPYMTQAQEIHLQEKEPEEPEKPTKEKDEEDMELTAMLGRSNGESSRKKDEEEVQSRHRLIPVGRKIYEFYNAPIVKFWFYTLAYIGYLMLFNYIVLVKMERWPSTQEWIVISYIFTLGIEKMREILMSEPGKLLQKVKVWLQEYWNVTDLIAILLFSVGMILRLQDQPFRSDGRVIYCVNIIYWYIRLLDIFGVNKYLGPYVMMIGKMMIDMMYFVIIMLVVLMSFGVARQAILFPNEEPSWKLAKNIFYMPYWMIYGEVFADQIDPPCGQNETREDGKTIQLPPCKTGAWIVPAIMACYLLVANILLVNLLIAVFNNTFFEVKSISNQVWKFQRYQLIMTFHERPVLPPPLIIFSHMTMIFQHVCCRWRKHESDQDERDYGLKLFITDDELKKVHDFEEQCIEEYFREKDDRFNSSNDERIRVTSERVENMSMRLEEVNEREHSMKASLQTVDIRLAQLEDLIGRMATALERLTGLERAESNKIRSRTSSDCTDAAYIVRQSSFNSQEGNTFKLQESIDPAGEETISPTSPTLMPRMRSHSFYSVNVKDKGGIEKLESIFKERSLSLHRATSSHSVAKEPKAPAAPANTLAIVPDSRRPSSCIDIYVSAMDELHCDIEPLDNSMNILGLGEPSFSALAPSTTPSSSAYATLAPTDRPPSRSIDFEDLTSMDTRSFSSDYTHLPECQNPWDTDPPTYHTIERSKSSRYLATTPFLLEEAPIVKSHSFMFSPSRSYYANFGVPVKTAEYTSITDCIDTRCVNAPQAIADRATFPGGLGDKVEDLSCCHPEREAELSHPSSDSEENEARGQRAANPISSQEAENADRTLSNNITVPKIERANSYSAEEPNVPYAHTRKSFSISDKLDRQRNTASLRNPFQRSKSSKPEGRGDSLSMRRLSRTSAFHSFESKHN
Format: cell-based
Method: In order to monitor the inhibition of the mouse TRPM3α2 (mTRPM3) ion channel by the compounds of the invention, a cellular system making use of an mTRPM3alpha2 or hTRPM3 overexpressing cell line (flip-in HEK293) was used. The TRPM3 channel was stimulated/opened with Pregnenolone sulfate (PS) (50 μM) which results in Ca^2+ influx.
For mTRPM3, the intracellular Ca^2+ was measured with a Calcium responsive dye, Fluor-4 AMV ester (Invitrogen). Cells were cultured until a confluence of 80-90%, washed with Versene (Invitrogen) and detached from the surface by a short incubation with 0.05% Trypsin (Invitrogen). The trypsination process was stopped by the addition of complete cell culture medium (DMEM, glutamax, 10% FCS, NEAA,Pen-Strep). Cells were collected and resuspended in Krebs buffer without Calcium at RT.
Prior the cell seeding (±2000 cells/well into a black, 384 well plate (Greiner)) the diluted compound was added in the assay plate, together with the PS dissolved in Krebs buffer containing Calcium. […] Directly after cell addition the plates were read on an Envision fluorescence reader (PerkinElmer) by an Excitation of 485 nm and emission at 535 nm.
Channel inhibition was calculated compared to a non-PS stimulated control versus a condition stimulated with PS (50 μM) with vehicle. The ability of the compounds of the invention to inhibit this activity was determined as: Percentage inhibition=[1−((RFU determined for sample with test compound present−RFU determined for sample with positive control inhibitor) divided by (RFU determined in the presence of vehicle−RFU determined for sample with positive control inhibitor))]*100.
The activities of the Example compounds tested are depicted in the table below. The activity ranges A, B and C refer to IC50 values in the Fluo-4 AM assay as follows: “A”: IC50<1 μM; “B”: 1 μM≤IC50≤20 μM and “C”: IC50>20 μM

| IC50 | SMILES |
| --- | --- |
| < 1000 nM | Cc1oc2ccc(OCC3CCCC3)cc2c1C(=O)NC(C)(CO)C(N)=O (single isomer, unassigned) [Cpd 062 - En2, 2-{[5-(cyclopentylmethoxy)-2-methyl-1-benzofuran-3-yl]formamido}-3-hydroxy-2-methylpropanamide] |
| < 1000 nM | Cc1oc2ccc(OC[C@@H]3C[C@@H]4C[C@@H]4C3)cc2c1C(=O)NC(C)(CO)C(N)=O (single isomer, unassigned) [Cpd 050 - En2, Cis-2-{[5-({bicyclo[3.1.0]hexan-3-yl}methoxy)-2-methyl-1-benzofuran-3-yl]formamido}-3-hydroxy-2-methylpropanamide] |
| < 1000 nM | Cc1oc2ccc(OCC3CCC3)cc2c1C(=O)NC(C)(CO)CO [Cpd 018, 5-(cyclobutylmethoxy)-N-(1,3-dihydroxy-2-methylpropan-2-yl)-2-methyl-1-benzofuran-3-carboxamide] |
| 1000 to 20000 nM | Cc1oc2ccc(OCC3CC3(F)F)cc2c1C(=O)NC1CCNCC1(F)F (single isomer, unassigned) [Cpd 031 - En3, 5-[(2,2-difluorocyclopropyl)methoxy]-N-(3,3-difluoropiperidin-4-yl)-2-methyl-1-benzofuran-3-carboxamide] |
| < 1000 nM | Cc1oc2ccc(OC[C@H]3C[C@@H]4C[C@@H]4C3)cc2c1C(=O)NC(C)(CO)C(N)=O (single isomer, unassigned) [Cpd 051 - En1, Trans-2-{[5-({bicyclo[3.1.0]hexan-3-yl}methoxy)-2-methyl-1-benzofuran-3-yl]formamido}-3-hydroxy-2-methylpropanamide] |
| 1000 to 20000 nM | Cc1oc2ccc(OCC3CC3(F)F)cc2c1C(=O)NC(CO)CC(F)(F)F (single isomer, unassigned) [Cpd 057 - En4, 5-[(2,2-difluorocyclopropyl)methoxy]-2-methyl-N-(4,4,4-trifluoro-1-hydroxybutan-2-yl)-1-benzofuran-3-carboxamide] |
| < 1000 nM | Cc1oc2ccc(OCC3CC3(F)F)cc2c1C(=O)N[C@@H](CO)C(N)=O (single isomer, unassigned) [Cpd 002 - En1] |
| < 1000 nM | Cc1oc2ccc(OCC3CCC3)cc2c1C(=O)NC(C)(CO)C(N)=O (single isomer, unassigned) [Cpd 053 - En2, 2-{[5-(cyclobutylmethoxy)-2-methyl-1-benzofuran-3-yl]formamido}-3-hydroxy-2-methylpropanamide] |
| 1000 to 20000 nM | Cc1oc2ccc(OCC3CC3(C)C)cc2c1C(=O)NC1CCNCC1(F)F (single isomer, unassigned) [Cpd 033-En2, N-(3,3-difluoropiperidin-4-yl)-5-[(2,2-dimethylcyclopropyl)methoxy]-2-methyl-1-benzofuran-3-carboxamide] |
| < 1000 nM | Cc1oc2ccc(OCC3CC3(C)C)cc2c1C(=O)NC(C)(CO)C(N)=O (single isomer, unassigned) [Cpd 049 - En3, 2-({5-[(2,2-dimethylcyclopropyl)methoxy]-2-methyl-1-benzofuran-3-yl}formamido)-3-hydroxy-2-methylpropanamide] |
| < 1000 nM | Cc1oc2ccc(OCC(F)F)cc2c1C(=O)NC(C)(CO)C(N)=O (single isomer, unassigned) [Cpd 041 - En1, 2-{[5-(2,2-difluoroethoxy)-2-methyl-1-benzofuran-3-yl]formamido}-3-hydroxy-2-methylpropanamide] |
| 1000 to 20000 nM | Cc1oc2ccc(OCC3CCC3)cc2c1C(=O)NC1CCNCC1(F)F (single isomer, unassigned) [Cpd 019 - En1, 5-(cyclobutylmethoxy)-N-(3,3-difluoropiperidin-4-yl)-2-methyl-1-benzofuran-3-carboxamide] |
| < 1000 nM | Cc1oc2ccc(OCC3(C(F)(F)F)CC3)cc2c1C(=O)NC(C)(CO)C(N)=O (single isomer, unassigned) [Cpd 048 - En2, 3-hydroxy-2-methyl-2-[(2-methyl-5-{[1-(trifluoromethyl)cyclopropyl]methoxy}-1-benzofuran-3-yl)formamido]propanamide] |
| < 1000 nM | Cc1oc2ccc(OCC3CCC3)cc2c1C(=O)NC(C)(CO)C(N)=O (single isomer, unassigned) [Cpd 053 - En1, 2-{[5-(cyclobutylmethoxy)-2-methyl-1-benzofuran-3-yl]formamido}-3-hydroxy-2-methylpropanamide] |
| < 1000 nM | Cc1oc2ccc(OCC3CC3(C)C)cc2c1C(=O)NC(C)(CO)C(N)=O (single isomer, unassigned) [Cpd 049 - En4, 2-({5-[(2,2-dimethylcyclopropyl)methoxy]-2-methyl-1-benzofuran-3-yl}formamido)-3-hydroxy-2-methylpropanamide] |
| < 1000 nM | Cc1oc2ccc(OCC3CC3)cc2c1C(=O)NC(C)(CO)CC(F)F (single isomer, unassigned) [Cpd 046 - En1, 5-(cyclopropylmethoxy)-N-(4,4-difluoro-1-hydroxy-2-methylbutan-2-yl)-2-methyl-1-benzofuran-3-carboxamide] |
| < 1000 nM | Cc1oc2ccc(OCC3CC3)cc2c1C(=O)NC(C)(CO)C(N)=O (single isomer, unassigned) [Cpd 017 - En1, 2-{[5-(cyclopropylmethoxy)-2-methyl-1-benzofuran-3-yl]formamido}-3-hydroxy-2-methylpropanamide] |
| 1000 to 20000 nM | Cc1oc2ccc(OCC3CC3(F)F)cc2c1C(=O)NC1CCNCC1(F)F (single isomer, unassigned) [Cpd 031 - En1, 5-[(2,2-difluorocyclopropyl)methoxy]-N-(3,3-difluoropiperidin-4-yl)-2-methyl-1-benzofuran-3-carboxamide] |
| < 1000 nM | Cc1oc2ccc(OCC(C)C)cc2c1C(=O)NC1CCNCC1(F)F (single isomer, unassigned) [Cpd 042 - En2, N-(3,3-difluoropiperidin-4-yl)-2-methyl-5-(2-methylpropoxy)-1-benzofuran-3-carboxamide] |
| < 1000 nM | Cc1oc2ccc(OCCC3CC3)cc2c1C(=O)N[C@@H](CO)C(N)=O [Cpd 005, (2S)-2-{[5-(2-cyclopropylethoxy)-2-methyl-1-benzofuran-3-yl]formamido}-3-hydroxypropanamide] |
| < 1000 nM | Cc1oc2ccc(OCC3CC3)cc2c1C(=O)NC(CO)C(N)C(F)(F)F (single isomer, unassigned) [Cpd 056 - En2, N-[(2)-3-amino-4,4,4-trifluoro-1-hydroxybutan-2-yl]-5-(cyclopropylmethoxy)-2-methyl-1-benzofuran-3-carboxamide] |
| < 1000 nM | Cc1oc2ccc(OCC(F)F)cc2c1C(=O)N[C@H](C(N)=O)[C@@H](C)O [Cpd 040, (2S,3R)-2-{[5-(2,2-difluoroethoxy)-2-methyl-1-benzofuran-3-yl]formamido}-3-hydroxybutanamide] |
| < 1000 nM | Cc1oc2ccc(OCC3CC3)cc2c1C(=O)NC1(C(N)=O)CCOC1 (single isomer, unassigned) [Cpd 035 - En2, N-(3-carbamoyloxolan-3-yl)-5-(cyclopropylmethoxy)-2-methyl-1-benzofuran-3-carboxamide] |
| < 1000 nM | Cc1oc2cc(F)c(OCC3CC3)cc2c1C(=O)NC(C)(CO)C(N)=O (single isomer, unassigned) [Cpd 045 - En2, 2-{[5-(cyclopropylmethoxy)-6-fluoro-2-methyl-1-benzofuran-3-yl]formamido}-3-hydroxy-2-methylpropanamide] |
| < 1000 nM | Cc1oc2ccc(OCC(F)(F)F)cc2c1C(=O)NC(C)(CO)C(N)=O (single isomer, unassigned) [Cpd 047 - En2, 3-hydroxy-2-methyl-2-{[2-methyl-5-(2,2,2-trifluoroethoxy)-1-benzofuran-3-yl]formamido}propanamide] |
| < 1000 nM | Cc1oc2ccc(OCC3CC3)cc2c1C(=O)N[C@H](CO)C(N)=O [Cpd 009, (2R)-2-{[5-(cyclopropylmethoxy)-2-methyl-1-benzofuran-3-yl]formamido}-3-hydroxypropanamide] |
| < 1000 nM | Cc1oc2ccc(OCC3CC3(F)F)cc2c1C(=O)NC1CCNCC1(F)F (single isomer, unassigned) [Cpd 031 - En2, 5-[(2,2-difluorocyclopropyl)methoxy]-N-(3,3-difluoropiperidin-4-yl)-2-methyl-1-benzofuran-3-carboxamide] |
| 1000 to 20000 nM | Cc1oc2ccc(OCC(F)(F)F)cc2c1C(=O)NC(C)(CO)C(N)=O (single isomer, unassigned) [Cpd 047 - En1, 3-hydroxy-2-methyl-2-{[2-methyl-5-(2,2,2-trifluoroethoxy)-1-benzofuran-3-yl]formamido}propanamide] |
| < 1000 nM | Cc1oc2ccc(OCC3(C(F)F)CC3)cc2c1C(=O)NC1(C(N)=O)CCOC1 (single isomer, unassigned) [Cpd 036 - En2, N-(3-carbamoyloxolan-3-yl)-5-{[1-(difluoromethyl)cyclopropyl]methoxy}-2-methyl-1-benzofuran-3-carboxamide] |
